The subject of one data set is Klebsiella pneumoniae 20. In words: Minimal inhibitory concentration (MIC), two-fold agar-plate dilution method, Klebsiella pneumoniae 20. Type of data set: cell-based. To be noted: HI-agar, 37° C., 20 hours, 10^8 viable cells per ml. As to the method:
(§1) In vitro antibacterial activity was determined by the two-fold agar-plate dilution method as described below.
(§2) One loopful of an overnight culture of each test strain in Trypticase-soy broth (10^8 viable cells per ml) was streaked on heart infusion agar (HI-agar) containing graded concentrations of representative test compound, and the minimal inhibitory concentration (MIC) was expressed in terms of μg/ml after incubation at 37° C. for 20 hours.

The subject of the next data set is Proteus mirabilis 18. In words: Minimal inhibitory concentration (MIC), two-fold agar-plate dilution method, Proteus mirabilis 18. Type of data set: cell-based. To be noted: HI-agar, 37° C., 20 hours, 10^8 viable cells per ml. As to the method:
as §1, §2

A further data set relates to Proteus vulgaris 2. In words: Minimal inhibitory concentration (MIC), two-fold agar-plate dilution method, Proteus vulgaris 2. To be noted: HI-agar, 37° C., 20 hours, 10^8 viable cells per ml. It is filed as cell-based. On the procedure:
as §1, §2

Data set [1] can be described thus: Urinary excretion in rats after oral administration. Type of data set: in vivo. To be noted: rat, 100 mg/kg, urine 0-24 hours, bioassay, read-out: Urinary recovery in 24 hours.
Experimental: Urine of rats was collected with a urine collector at 0 to 6, and 6 to 24 hours after oral administration of 100 mg/kg of the test antibiotic. The antibiotic levels in the urine samples were bioassayed with the standard solution prepared with M/15 phosphate buffer pH 7.0) and the urinary recovery in 24 hours was calculated.
A short description of the next data set: in vivo. To be noted: rat, po, 100 mg/kg.

MIC and dose excreted data for two molecules are collected here from US4609730A, “7-[substituted imino-2-(2-aminothiazol-4-yl)-acetamido]-3(2,2-dihalovinyl or ethynyl)-3-cephem-4-carboxylic acid (syn isomers), having antimicrobial activities” (Fujisawa Pharmaceutical Co., Ltd., priority 1982, dated 1986).

Structures are written as SMILES. Values after ≈ are worked out from the molar mass of the structure shown.

Experimental for in vivo: Rats anesthetized with pentobarbital were fixed in supine position, and a polyethylene cannula was inserted into the bile duct. Bile samples were collected at 0 to 3, 3 to 6, and 6 to 24 hours after oral administration of 100 mg/kg of the test antibiotic. The antibiotic levels in the bile samples were bioassayed with the standard solution prepared with M/15 phosphate buffer (pH 7.0) and the biliary recovery in 24 hours were calculated.

In the case of `C#CC1=C(C(=O)O)N2C(=O)C(NC(=O)/C(=N\OCC(=O)O)c3csc(N)n3)C2SC1` (stereo not drawn) [A, 7-[2-Carboxymethoxyimino-2-(2-aminothiazol-4-yl)-acetamido]-3-ethynyl-3-cephem-4-carboxylic acid (syn isomer)], the figures for the MIC with Klebsiella pneumoniae 20, with Proteus mirabilis 18 and with Proteus vulgaris 2 were 0.1 µg/mL (≈ 0.222 µM), 0.05 µg/mL (≈ 0.111 µM) and 0.025 µg/mL (≈ 0.0554 µM), respectively. Further, the dose excreted at 24 h stood at 20% in data set [1] and 7.46% in “in vivo”.
Regarding `CO/N=C(\C(=O)NC1C(=O)N2C(C(=O)O)=C(C=C(Cl)Cl)CSC12)c1csc(N)n1` (stereo not drawn) [B, 7-[2-Methoxyimino-2-(2-aminothiazol-4-yl)acetamido]-3-(2,2-dichlorovinyl)-3-cephem-4-carboxylic acid (syn isomer)], the minimum inhibitory concentration (MIC) in the data set with Klebsiella pneumoniae 20 worked out at 0.025 µg/mL (≈ 0.0523 µM); in the data set with Proteus mirabilis 18 it was 0.05 µg/mL (≈ 0.105 µM); against Proteus vulgaris 2, 0.025 µg/mL (≈ 0.0523 µM).

For orientation: MIC means the smallest concentration in the dilution series that meets the test's criterion for growth inhibition.
